The structures appear in SMILES notation. Read-outs that look alike come from different tables or passages of the source.

The target in assay [1] is T1, mouse δ opioid receptor (Mus musculus, UniProt P32300). In words: cell-based. The class given is cell-based. Conditions: for Emax: HEK293, read-out: Max Inhibition %.
In assay [2] the test system is μ opioid receptors. The following applies: ref Gharagozlou et al. unpublished results; cited from earlier work.
The target of assay [3] is T1, mouse δ opioid receptor. The class given is binding. The following applies: read-out: AFFINITY Ki.
The subject of assay [4] is μ opioid receptors. The following applies: ref Gharagozlou et al. unpublished results; cited from earlier work. The source holds these as a separate data set.
The target in assay [5] is T1, mouse δ opioid receptor.

T1 sequence (P32300 whole entry): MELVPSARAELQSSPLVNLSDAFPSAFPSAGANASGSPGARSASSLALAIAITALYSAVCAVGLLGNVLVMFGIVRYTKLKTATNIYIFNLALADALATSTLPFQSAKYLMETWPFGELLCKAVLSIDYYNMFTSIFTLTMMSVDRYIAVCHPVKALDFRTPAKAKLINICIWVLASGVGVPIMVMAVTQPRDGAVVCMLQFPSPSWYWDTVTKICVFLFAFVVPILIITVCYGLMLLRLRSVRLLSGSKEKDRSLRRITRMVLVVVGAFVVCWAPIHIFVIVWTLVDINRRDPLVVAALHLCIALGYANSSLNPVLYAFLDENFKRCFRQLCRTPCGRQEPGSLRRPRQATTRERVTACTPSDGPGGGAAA

The term IC50 denotes the concentration that gives 50% inhibition. `Oc1ccc2c(c1)[C@@]13CCCC[C@@]1(O)[C@@H](C2)N(CC1CCC1)CC3` [Butorphanol]: the Emax at mouse δ opioid receptor [1] worked out at 64 ± 4%. The compound further returned an IC50 on mouse δ opioid receptor [1] (IC50 ± SEM) of 61 ± 12 nM.
For orientation: Ki means a dissociation constant, usually derived from enzyme kinetics or from competition with a known ligand. For `C=C1C[C@H](C)[C@H]2[C@H]3Cc4ccc(O)cc4[C@@]2(CCN3CC2CCC2)C1` [Xorphanol], the “activation profile at μ opioid receptors” value in the assay on μ opioid receptors [2] was “very weak agonist”. Further, the Ki on mouse δ opioid receptor [3] was 1 ± 0.2 nM. For the same compound, in the assay on μ opioid receptors [4], the “affinity at μ opioid receptors” value is listed as “less than 1 nM”. Moreover, at mouse δ opioid receptor [1], the “Agonist efficacy classification at δ opioid receptors” value is “super agonists” and the “Max Inhibition %” value is reported as 76 ± 4^$$ ## %. Further, on mouse δ opioid receptor [1] (read-out: IC50 ± SEM), the concentration for half-maximal inhibition (IC50) was determined as 8 ± 2 nM.
For the compound `CN1CC[C@]2(C)c3cc(O)ccc3C[C@H]1C2(C)CCC(=O)CCC1CCCC1` (some centres unmarked) [WIN 44,441], the “activation profile at μ opioid receptors” value in the assay with μ opioid receptors [2] is recorded as “antagonist”. Besides, the Ki on mouse δ opioid receptor [3] came to 2.6 ± 0.9 nM. Also, in the assay with μ opioid receptors [4], the “affinity at μ opioid receptors” value is “less than 1 nM”. On mouse δ opioid receptor [1], the “Max Inhibition %” value is 54 ± 6 %. Also, the concentration for half-maximal inhibition (IC50) on mouse δ opioid receptor [1] (read-out: IC50 ± SEM) came to 40 ± 25 nM.
Turning to `C[C@H]1[C@H]2Cc3ccc(O)cc3[C@]1(C)CCN2C` [Metazocine], on mouse δ opioid receptor [1], the “Agonist efficacy classification at δ opioid receptors” value is “super agonists” and the Emax was determined as 77 ± 4%. On mouse δ opioid receptor [1] (IC50 ± SEM), this compound gave an IC50 of 159 ± 70 nM.
Turning to `C=CCN1CCC2(C)c3cc(O)ccc3CC1C2C` (centres unmarked) [SKF 10047], the Emax at mouse δ opioid receptor [1] is 68 ± 9%. Moreover, the midpoint of inhibition against mouse δ opioid receptor [1] (IC50 ± SEM), the IC50, lay at 184 ± 121 nM.
The like results for `C[C@@]12CCCCC[C@@H](Cc3ccc(O)cc31)[C@@H]2N` [Dezocine] were, in that order, 39% and 477 ± 152 nM.
The like results for `C[C@H]1[C@H]2Cc3ccc(O)cc3[C@]1(C)CCN2CC1CC1` [Cyclazocine] were, in that order, 53 ± 2% and 6 ± 3 nM.
With `C=CCN1CC[C@]23c4c5ccc(O)c4O[C@H]2[C@@H](O)C=C[C@H]3[C@H]1C5` [Nalorphine], the “Classification as antagonist at δ opioid receptor” value on mouse δ opioid receptor [5] was “Antagonist”.

These data come from publication PMC137588 (BMC Neuroscience, 2002).
